Reference: patent US12447171B2 (CELGENE QUANTICEL RESEARCH, INC., priority 2019, dated 2025)
pEC50: −log10 of the molar value.

Key:
[1] = tested on: stearoyl-CoA desaturase (SCD); experiment: SCD expression (RNAseq, real-time PCR) in MV4-11 cells; assay type: cell-based
Description: After treatment, cells were recovered, washed once in PBS, and flash frozen as cell pellets. Cell pellets were sent to Canopy Biosciences for RNA extraction and library preparation and sequencing. RNA was extracted using the Qiagen RNeasy Mini Kit according to manufacturer's instructions. A modified protocol was used to preserve miRNA species. Total RNA Seq libraries were prepared using 200 ng of total RNA and the NEBNext Ultra II Directional Library prep kit. rRNA depletion was performed using an RNase-H based method (New England Biolabs, Ipswich, MA). MCL1 RNA levels in other cell lines were quantified by RNASeq using standard methods.
Libraries were multiplexed and sequenced using Illumina HiSeq. All gene counts were then imported into the R/Bioconductor package EdgeR and TMM normalization size factors were calculated to adjust for samples for differences in library size. Ribosomal genes and genes not expressed in the smallest group size minus one samples greater than one count-per-million were excluded from further analysis. Differential expression analysis was then performed to analyze for differences between conditions and the results were filtered for only those genes with Benjamini-Hochberg false-discovery rate adjusted p-values less than or equal to 0.05. Global perturbations in known Gene Ontology (GO) terms and KEGG pathways were detected using the R/Bioconductor package GAGE to test for changes in expression of the reported log 2 fold-changes reported by Limma in each term versus the background log 2 fold-changes of all genes found outside the respective term. […]
At this time, cells were recovered and RNA was extracted using Qiagen RNeasy kit according to manufacturer's instructions. […] Validated Taqman probes and Taqman Fast Advanced Master Mix was used with Viia 7 Real-Time PCR System (Invitrogen/ThermoFisher Scientific, Waltham, MA) to quantify transcripts of ATF3, SCD, and 18S mRNA.

BaF-FLT3-ITD = experiment: Cell viability assay (Cell Titer-Glo), BaF3 cells expressing FLT3; assay type: cell-based; conditions: Mus musculus
MOLM-13 xenograft model = experiment: Disseminated MOLM-13 xenograft survival study; assay type: in vivo, mice; conditions: for Median survival: MOLM-13, NOD/SCID mice, vehicle=19 days; for survival compared to vehicle alone: MOLM-13
Description: LEED models oral administration of AZA, while HELD models intravenous or subcutaneous administration of AZA.
The animals were fed ad libitum water (reverse osmosis, 1 ppm Cl), and NIH 31 Modified and Irradiated Lab Diet® consisting of 18.0% crude protein, 5.0% crude fat, and 5.0% crude fiber. The mice were housed on irradiated Enrich-o'cobs™ Laboratory Animal Bedding in static microisolators on a 12-hour light cycle at 20-22° C. (68-72° F.) and 40-60% humidity.
On each day of dosing, an appropriate amount of gilteritinib was dissolved in 0.5% methylcellulose in DI water to yield a dosing solution at 0.4 mg/mL. Each week, an appropriate amount of venetoclax was dissolved in 10% ethanol:30% PEG400:60% phosal 50 propylene glycol to yield a dosing solution at 10 mg/mL. […] Each test mouse received 5×10^6 MOLM-13 cells or 10^7 MV4-11 cells (0.2 mL cell suspension) by tail vein injection. Dosing was initiated three days after tumor cell inoculation, which was designated as Day 1 of the study. NOD/SCID mice (n=9-12/group) were randomized according to body weight and dosed. […] Vehicle was administered both IP and PO. The dosing volume for all treatments was 10 mL/kg, scaled to the weight of each individual animal.
Animals were monitored individually for an endpoint of moribundity due to progression of the leukemia. Full hind limb paralysis, severe ocular proptosis, or moribundity was considered sufficient for euthanasia due to tumor progression. Moribund animals were defined as sick animals unable to reach food and water. These deaths were classified as death on survival study. The time to endpoint (TTE), in days, was recorded for each mouse that died of its disease or was euthanized due to extensive tumor progression. […] An animal classified as having died from treatment-related (TR) causes was assigned a TTE value equal to the day of death. An animal classified as having died from non-treatment-related (NTR) causes, or used for sampling before endpoint, was excluded from TTE calculations and all further analyses. The median TTE value was calculated for each group. The median TTE of treated mice was expressed as a percentage of the median TTE of the control mice (% T/C), and the increase in life span (ILS) was calculated as: ILS=% T/C−100%, where T=median TTE treated, and C=median TTE control. Thus, if T=C, ILS=0%.
Animals were weighed daily on Days 1-5, then twice per week until the completion of the study. […] Individual body weight loss was monitored as per protocol and any animal that exceeded the limits for acceptable body weight loss was euthanized. Group mean body weight loss also was monitored as per protocol. Dosing was suspended in any group that exceeded the limits for acceptable mean body weight loss. If mean body weight recovered, then dosing may be resumed in that group, but at a lower dosage or less frequent dosing schedule. Acceptable toxicity for the maximum tolerated dose was defined as a group mean body-weight loss of less than 20% during the study and not more than one TR death among ten treated animals. […] A death was classified as NTR if there was no evidence that death was related to treatment side effects or tumor progression. Non-treatment-related deaths may be further characterized based on cause of death. A death may be classified as NTRa if it resulted from an accident or human error. A death may be classified as NTRu if the cause of death is unknown and there is no available evidence of death related to treatment side effects, metastasis, accident or human error, although death due to these etiologies cannot be excluded. Survival was analyzed by the Kaplan-Meier method, based on TTE values. The logrank (Mantel-Cox) and Gehan-Breslow-Wilcoxon tests determined the significance of the difference between the overall survival experiences (survival curves) of two groups, based on TTE values.
These experiments were repeated with a second FLT3-ITD cell line, MOLM-13.

SMILES: Nc1ncn([C@@H]2O[C@H](CO)[C@@H](O)[C@H]2O)c(=O)n1 [5-azacytidine, 4-amino-1-B-D-ribofuranosyl-1,3,5-triazin-2(1H)-one]
- SCD expression (real-time PCR) ([1]; MV4-11, 3 μM 5-azacytidine): decreased rapidly within 24 hours
- SCD expression (real-time PCR) ([1]; MV4-11, low concentrations of 5-azacytidine, 24 hours): not affected
- SCD expression decrease ([1]; RNAseq, MV4-11, 1 μM, 48 hours): 2.5 fold
- pEC50 (BaF-FLT3-ITD): 6.22
- Median survival (MOLM-13 xenograft model; HELD 5-azacytidine 3 mg/kg IP qd×5, alone or with midostaurin 100, gilteritinib 4 or venetoclax 100 mg/kg PO qd×21): 32 days
- Median survival (MOLM-13 xenograft model; LEED 5-azacytidine 1 mg/kg IP qd×15, alone or with midostaurin 100, gilteritinib 4 or venetoclax 100 mg/kg PO qd×21): 36 days
- survival compared to vehicle alone (MOLM-13 xenograft model; HELD 5-azacytidine 3 mg/kg IP qd×5, alone or in combination): statistically significantly increases in survival
- survival compared to vehicle alone (MOLM-13 xenograft model; LEED 5-azacytidine 1 mg/kg IP qd×15, alone or in combination): statistically significantly increases in survival
